# Assays:
# [1] = Compound was tested in vitro for its ability to inhibit serine protease chymotrypsin using suc-Ala-Ala-Pro-Phe-p-nitroanilide as substrate
# [2] = Compound was tested in vitro for its ability to inhibit serine protease trypsin using benzoyl-Phe-Val-Arg-p-nitroanilide as substrate
smiles,measurement,setting,value
Cc1cc(OCCCNC(=N)N)cc(OS(=O)(=O)c2ccccc2Cl)c1 [2-Chloro-benzenesulfonic acid 3-(3-guanidino-propoxy)-5-methyl-phenyl ester],Ki,[1],> 200 µM
same,Ki,[2],23 µM

# Reference: BindingDB's records for doi:10.1016/s0960-894x(98)00290-x (3-Dimensional Pharmaceuticals, 1999)
